The test system of assay [1] is human iNKT cell clones. Description: Cytokine ELISA of human iNKT cell clones stimulated with glycolipid-pulsed CD1d-transfected HeLa cells. The class given is cell-based. As for the experimental part: Capture ELISA assays were used for measurement of cytokine responses of human iNKT cells to αGalCer analogs. One day prior to the experiment, CD1d transfected HeLa cells were plated at 25×10^3 cells/well in 100 µL of medium in flat-bottom 96 well plates. Glycolipids were then added in 100 µL of medium to give final concentrations ranging from 0.05 to 10^4 nM. The APCs were incubated for approximately 18 hours with the glycolipids and then irradiated (10,000 Rad) and washed twice with PBS prior to addition of 25×10^3 iNKT cells well in 300 µL. Supernatants were harvested after 24 hours of co-culture and stored frozen at -20°C. After thawing, aliquots of the supernatants were assayed for specific cytokines by ELISA using capture and biotin-labeled detection antibody pairs specific for GM-CSF, IL-2, IL-4, IL-12p70 and IL-13 (all obtained from BD Biosciences), IFNγ (Thermo-Scientific) or IL-18 (MBL). Specific signals were developed using HRP- conjugated streptavidin (BD Biosciences) and Turbo TMB substrate (Thermo-Scientific). Supernatants were tested pure and/or diluted to give values within a quantitative linear standard curve generated with recombinant cytokines. Curves of dose-dependent cytokine responses and graphs were plotted using the Graphpad Prism Software. EC50 values were calculated using the function log (agonist) response with variable slope, and statistical analyses were carried out using the same software. To calculate concentration-dependent cytokine ratios, IL-4/IFNγ and IL-13/IFNγ ratios were calculated using cytokine values from which background levels (i.e. levels in cultures receiving DMSO vehicle alone) were subtracted. Ratios were calculated by dividing IL-4 or IL-13 concentrations in pg/mL by IFNγ concentration in ng/mL.

The target of assay [2] is Human iNKT TCRs (Homo sapiens, UniProt A0A075B6N4+A0A0B4J240+P15813). Description: Equilibrium binding of analog-loaded hCD1d tetramers to iNKT cell clones. An excerpt: For flow cytometric analysis, 6B11 (Vα24Jα18 specific) and mAbs specific for human CD3, CD4, CD8α, CD19, CD40L (CD154), CD56, CD69, GM-CSF & IFNγ were obtained from BD Biosciences. IL-4 and IL-13 specific mAbs were from Biolegend. Vα24 (C15) and Vβ11 (C21) specific mAb were from Immunotech. For antibody blocking in culture assays, non-specific isotype matched control, IL-2, IFNγ, IL-12p70 and CD40L specific mAbs without preservatives were obtained from BD Biosciences and IL-18 specific mAb from Medical & Biological Laboratories (MBL, Nagoya, Japan). Phycoerythrin and allophycocyanin labeled human CD1d tetramers were prepared in our laboratory as previously described. Curves of tetramer equilibrium binding constants and graphs were plotted using the Graphpad Prism Software (Version 5). KD values were calculated using the function non-linear fit (hyperbola, one binding site).
Human iNKT TCRs, sequence (P15813 20-301): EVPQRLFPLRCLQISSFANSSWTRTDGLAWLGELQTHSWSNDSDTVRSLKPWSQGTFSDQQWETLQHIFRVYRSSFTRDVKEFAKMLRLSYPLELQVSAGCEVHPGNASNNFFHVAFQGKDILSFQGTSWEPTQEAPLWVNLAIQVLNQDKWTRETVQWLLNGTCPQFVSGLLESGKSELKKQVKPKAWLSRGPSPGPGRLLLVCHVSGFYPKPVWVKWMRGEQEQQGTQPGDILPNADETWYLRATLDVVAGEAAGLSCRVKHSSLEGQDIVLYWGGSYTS
Human iNKT TCRs, sequence (P01848 whole entry, further chain): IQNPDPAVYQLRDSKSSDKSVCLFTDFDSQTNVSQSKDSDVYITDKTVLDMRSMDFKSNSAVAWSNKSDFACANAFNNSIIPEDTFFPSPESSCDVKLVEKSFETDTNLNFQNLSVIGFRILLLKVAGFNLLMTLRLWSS
Human iNKT TCRs, sequence (A0A0B4J240 22-114): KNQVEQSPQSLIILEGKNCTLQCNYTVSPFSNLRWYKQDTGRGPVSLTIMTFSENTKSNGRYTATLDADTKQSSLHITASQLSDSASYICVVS
Human iNKT TCRs, sequence (P61769 21-119, further chain): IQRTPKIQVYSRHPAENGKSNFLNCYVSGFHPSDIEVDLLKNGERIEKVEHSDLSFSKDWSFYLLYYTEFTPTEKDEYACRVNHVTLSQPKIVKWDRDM
Human iNKT TCRs, sequence (A0A075B6N4 22-114): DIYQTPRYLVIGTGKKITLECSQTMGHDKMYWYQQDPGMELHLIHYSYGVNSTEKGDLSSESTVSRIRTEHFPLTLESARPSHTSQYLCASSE
To characterize in more detail the iNKT cell TCR recognition of αGalCer analogs presented by human CD1d, we generated soluble and fluorescent tetrameric hCD1d molecules loaded with each of the glycolipid analogs. […] This was similar to the previously reported failure of mouse CD1d tetramer loaded with lysosulfatide to bind detectably to murine non-invariant and sulfatide specific NKT cells, despite a clear reactivity to this lipid upon presentation by APCs; [40]. […] To quantitate their binding avidities to iNKT cell TCRs, we used titration of analog-loaded hCD1d tetramers to determine equilibrium dissociation constants (KD), which are inversely proportional to avidity (Figure 3A and 3B).
Figure 3 Characterization of human iNKT cell TCR interactions with analog-loaded tetramers. (A) iNKT cell clones were stained with titrated amounts of hCD1d tetramers loaded with the indicated glycolipids (abbreviations as in legend to Figure 1), and the measured MFI values are plotted for selected glycolipids. (B) The equilibrium dissociation constants (KD, inversely proportional to TCR avidity) were determined as the concentrations of tetramers required to yield 50% of maximal binding. Data shown were obtained using the CD4^+ iNKT cell clone HDD3, and similar results (not shown) were obtained with a second CD4^+ clone (HDD11) and a CD4^−8^− double negative iNKT cell clone (HDE3). (C) Analysis of iNKT cell clones labeled with 20 nM of hCD1d tetramers which were loaded with variable excesses of analog to constant hCD1d (25 to 1000 fold molar excess of glycolipid to hCD1d protein). The measured MFI values were normalized as the percent of the maximum staining intensity obtained with each analog loaded tetramer. Data presented were generated with HDD3 (CD4+) iNKT cell clone, and similar results (not shown) were obtained with HDE3 (DN) clone.

Assay [3] has as its system human iNKT cells. As to conditions: cited from earlier work.

For the molecule `CCCCCCCCCCCCCCCCCCCCCCCCCC(=O)N[C@@H](CC[C@H]1O[C@H](CO)[C@H](O)[C@H](O)[C@H]1O)[C@H](O)[C@H](O)CCCCCCCCCCCCCC` [C-glycoside], the “reactivity of HDD3 iNKT cell clone” value in assay [1] (CD4+ clone HDD3) was “did not display detectable reactivity”. Moreover, the “reactivity of a fraction of the iNKT cell clones tested” value in assay [1] (primarily IL-13 production, limited induction of IFNγ) was “weak, but detectable, reactivity”. Further, the “clones with detectable reactivity” value in assay [1] (six clones tested) is listed as “Two clones out of six clones tested”. The “staining of iNKT cell clones by analog-loaded hCD1d tetramers” value in assay [2] is recorded as “only a weak staining intensity of a subset of iNKT cell clones tested”. In addition, the “stimulation of human iNKT cells in culture” value in assay [3] is “only weakly stimulatory”.
`CCCCCCCCCCCCCCCCCCCCCCCC(=O)N[C@@H](CO[C@H]1O[C@H](CO)[C@H](O)[C@H](O)[C@H]1O)[C@H](O)[C@H](O)CCCCC` [OCH] registered an EC50 in assay [1] (Homo sapiens, iNKT, HDD3 clone, IL-4 levels did not reach a plateau) greater than 10 µM. Also, the “induction of IL-4” value in assay [1] (all clones tested) was “minimal”. Further, in assay [1] (all iNKT cell clones tested), the “concentration required to induce detectable IL-13 production or weak IFNγ secretion” value is on record as greater than 10 nM. Also, the “iNKT cell clone cytokine response / agonist activity” value in assay [1] (dose range, IFNγ, IL-4, IL-13, clones HDD3, HDD11, HDE3, HDA7) was “much weaker reactivity”. Besides, in assay [2], the “staining of iNKT cell clones by analog-loaded hCD1d tetramers” value is on record as “only a weak staining intensity of a subset of iNKT cell clones tested”. The “ability to stimulate human iNKT cells” value in assay [3] was “weak or no detectable ability to stimulate human iNKT cells”.

The record behind these values is paper PMC3003687, “α-Galactosylceramide Analogs with Weak Agonist Activity for Human iNKT Cells Define New Candidate Anti-Inflammatory Agents” (PLoS ONE, 2010).
